{"source": "patent US8629101B2", "about": "“Cholesterol derivatives of inhibitors of viral fusion” (priority 2007, dated 2014)", "key": {"[1]": {"tested_on": "HIV-HXB2"}, "[2]": {"tested_on": "HIV-1 (HXB2)", "type": "cell-based", "conditions": "read-out: IC50 antiviral activity", "source_text": "The antiviral activity of a peptide from the membrane-proximal external region (MPER) of gp41, which also includes the epitope of monoclonal antibody (MAb) 2F5, […] […] Accordingly, when peptide […] […] Moreover, the nature of the lipid was important, since a bis-Lys(N^ε-Palmitoyl) group was ineffective. Details of the assay used can be found in Joyce et al, J. Biol Chem., 2002, 277, 45811-45820."}, "[3]": {"assay": "pharmacokinetics after intraperitoneal injection into the mouse", "type": "in vivo", "conditions": "ip", "source_text": "Effect of lipid derivatization on the pharmacokinetic properties of C34-chol. In addition to providing improved antiviral potency, derivatization with cholesterol also extends the half-life of the peptide in vivo."}, "[4]": {"tested_on": "HIV-HXB2", "assay": "pre-incubation of peptide with P4-2/R5 cells with/without wash, then HIV-HXB2 infection", "type": "cell-based, HIV-1", "conditions": "with wash versus no wash", "method": "After 48 h, the antiviral activities of the residual peptides that survive the washing steps were determined by measuring the f3-galactosidase activities within lysed cells as described above."}, "[5]": {"tested_on": "multiple HIV-1 isolates", "assay": "single-cycle infectivity assay across the panel of viral strains", "conditions": "variety of viral strains", "method": "HIV-1 Infectivity Assay (31). P4-2/R5 cells (HeLa cells expressing endogenous CXCR4 and stably transfected to express CD4 and CCR5 which also contain an integrated β-galactosidase reporter gene under control of an HIV LTR promoter) maintained in phenol red-free Dulbecco's modified Eagle's medium, 10% fetal bovine serum, 1% penicillin/streptomycin were seeded in 96-well plates at 2.5×10^3 cells/well and infected the following day with the HXB2 strain (and a variety of other strains in some cases) of HIV-1 (Advanced Biotechnology Inc., Bethesda, Md.) in the presence of titrations of the test inhibitory peptides at 37° C. After 48 h incubation with both virus and inhibitory peptides, cells were lysed and β-galactosidase was detected using Gal Screen™ chemiluminescent substrate (Applied Biosystems, Foster City, Calif.) according to the manufacturer's instructions. Data were obtained using a Dynex luminometer and IC50 values were calculated by KaleidaGraph."}}, "note": "Where a SMILES comes first, the peptide text is derived from it. The star is where a group is joined. X1 = CC(C)CCC[C@@H](C)[C@H]1CC[C@H]2[C@@H]3CC=C4C[C@@H](OC(=O)C*)CC[C@]4(C)[C@H]3CC[C@]12C"}
{"molecule": "CCCCCCCCCCCCCCCC(=O)NCCCC[C@H](NC(=O)CNC(=O)[C@H](CO)NC(=O)CNC(=O)[C@H](CC(C)C)NC(=O)[C@H](CC(C)C)NC(=O)[C@H](CCC(=O)O)NC(=O)[C@H](CCC(N)=O)NC(=O)[C@H](CCC(=O)O)NC(=O)[C@H](CC(N)=O)NC(=O)[C@H](CCCCN)NC(=O)[C@H](CCC(=O)O)NC(=O)[C@H](CCC(N)=O)NC(=O)[C@H](CCC(N)=O)NC(=O)[C@H](CC(N)=O)NC(=O)[C@H](CCC(N)=O)NC(=O)[C@H](CO)NC(=O)[C@H](CCC(=O)O)NC(=O)[C@H](CCC(=O)O)NC(=O)[C@@H](NC(=O)[C@H](CC(C)C)NC(=O)[C@H](CO)NC(=O)[C@H](Cc1c[nH]cn1)NC(=O)[C@@H](NC(=O)[C@H](CC(C)C)NC(=O)[C@H](CO)NC(=O)[C@@H](NC(=O)[C@H](Cc1ccc(O)cc1)NC(=O)[C@H](CC(N)=O)NC(=O)[C@H](CC(N)=O)NC(=O)[C@@H](NC(=O)[C@H](CCC(=O)O)NC(=O)[C@H](CCCNC(=N)N)NC(=O)[C@H](CC(=O)O)NC(=O)[C@H](Cc1c[nH]c2ccccc12)NC(=O)[C@H](CCC(=O)O)NC(=O)[C@H](CCSC)NC(=O)[C@H](Cc1c[nH]c2ccccc12)NC(C)=O)[C@@H](C)CC)[C@@H](C)O)[C@@H](C)CC)[C@@H](C)CC)C(N)=O", "note": "[Peptide C34-Pam]", "values": [{"measurement": "antiviral activity relative to underivatized C34", "setting": "[1]", "result": "comparable activity to underivatized C34"}]}
{"molecule": "CC(=O)N[C@@H](CCC(=O)O)C(=O)N[C@@H](CC(C)C)C(=O)N[C@@H](CC(C)C)C(=O)N[C@@H](CCC(=O)O)C(=O)N[C@@H](CC(C)C)C(=O)N[C@@H](CC(=O)O)C(=O)N[C@@H](CCCCN)C(=O)N[C@@H](Cc1c[nH]c2ccccc12)C(=O)N[C@@H](C)C(=O)N[C@@H](CO)C(=O)N[C@@H](CC(C)C)C(=O)N[C@@H](Cc1c[nH]c2ccccc12)C(=O)N[C@@H](CSCC(=O)O[C@H]1CC[C@@]2(C)C(=CC[C@H]3[C@@H]4CC[C@H]([C@H](C)CCCC(C)C)[C@@]4(C)CC[C@@H]32)C1)C(N)=O", "note": "(Ac-ELLELDKWASLWC(X1)-NH2)", "values": [{"measurement": "IC50", "setting": "[2]", "result": 5850, "unit": "nM"}]}
{"molecule": "CC[C@H](C)[C@H](NC(=O)[C@H](CC(C)C)NC(=O)[C@H](CO)NC(=O)[C@H](Cc1c[nH]cn1)NC(=O)[C@@H](NC(=O)[C@H](CC(C)C)NC(=O)[C@H](CO)NC(=O)[C@@H](NC(=O)[C@H](Cc1ccc(O)cc1)NC(=O)[C@H](CC(N)=O)NC(=O)[C@H](CC(N)=O)NC(=O)[C@@H](NC(=O)[C@H](CCC(=O)O)NC(=O)[C@H](CCCNC(=N)N)NC(=O)[C@H](CC(=O)O)NC(=O)[C@H](Cc1c[nH]c2ccccc12)NC(=O)[C@H](CCC(=O)O)NC(=O)[C@H](CCSC)NC(=O)[C@H](Cc1c[nH]c2ccccc12)NC(=O)CNC(=O)[C@H](CO)NC(=O)CNC(=O)[C@H](CSCC(=O)O[C@H]1CC[C@@]2(C)C(=CC[C@H]3[C@@H]4CC[C@H]([C@H](C)CCCC(C)C)[C@@]4(C)CC[C@@H]32)C1)NC(C)=O)[C@@H](C)CC)[C@@H](C)O)[C@@H](C)CC)C(=O)N[C@@H](CCC(=O)O)C(=O)N[C@@H](CCC(=O)O)C(=O)N[C@@H](CO)C(=O)N[C@@H](CCC(N)=O)C(=O)N[C@@H](CC(N)=O)C(=O)N[C@@H](CCC(N)=O)C(=O)N[C@@H](CCC(N)=O)C(=O)N[C@@H](CCC(=O)O)C(=O)N[C@@H](CCCCN)C(=O)N[C@@H](CC(N)=O)C(=O)N[C@@H](CCC(=O)O)C(=O)N[C@@H](CCC(N)=O)C(=O)N[C@@H](CCC(=O)O)C(=O)N[C@@H](CC(C)C)C(=O)N[C@@H](CC(C)C)C(N)=O", "note": "[Chol-C34]", "values": [{"measurement": "decrease of antiviral activity compared to underivatized C34", "setting": "[1]; cholesterol at the N-terminus", "result": 50, "unit": "fold"}]}
{"molecule": "enfuvirtide", "values": [{"measurement": "IC50", "setting": "[1]; read-out: IC50 viral infectivity, mean ± SEM of three independent experiments (Table 2)", "result": "0.692 ± 0.245", "unit": "nM"}]}
{"molecule": "CC[C@H](C)[C@H](NC(=O)[C@H](CC(C)C)NC(=O)[C@H](CO)NC(=O)[C@H](Cc1c[nH]cn1)NC(=O)[C@@H](NC(=O)[C@H](CC(C)C)NC(=O)[C@H](CO)NC(=O)[C@@H](NC(=O)[C@H](Cc1ccc(O)cc1)NC(=O)[C@H](CC(N)=O)NC(=O)[C@H](CC(N)=O)NC(=O)[C@@H](NC(=O)[C@H](CCC(=O)O)NC(=O)[C@H](CCCNC(=N)N)NC(=O)[C@H](CC(=O)O)NC(=O)[C@H](Cc1c[nH]c2ccccc12)NC(=O)[C@H](CCC(=O)O)NC(=O)[C@H](CCSC)NC(=O)[C@H](Cc1c[nH]c2ccccc12)NC(C)=O)[C@@H](C)CC)[C@@H](C)O)[C@@H](C)CC)C(=O)N[C@@H](CCC(=O)O)C(=O)N[C@@H](CCC(=O)O)C(=O)N[C@@H](CO)C(=O)N[C@@H](CCC(N)=O)C(=O)N[C@@H](CC(N)=O)C(=O)N[C@@H](CCC(N)=O)C(=O)N[C@@H](CCC(N)=O)C(=O)N[C@@H](CCC(=O)O)C(=O)N[C@@H](CCCCN)C(=O)N[C@@H](CC(N)=O)C(=O)N[C@@H](CCC(=O)O)C(=O)N[C@@H](CCC(N)=O)C(=O)N[C@@H](CCC(=O)O)C(=O)N[C@@H](CC(C)C)C(=O)N[C@@H](CC(C)C)C(=O)NCC(=O)N[C@@H](CO)C(=O)NCC(=O)N[C@@H](CSCC(=O)O[C@H]1CC[C@@]2(C)C(=CC[C@H]3[C@@H]4CC[C@H]([C@H](C)CCCC(C)C)[C@@]4(C)CC[C@@H]32)C1)C(N)=O", "note": "[Peptide C34-Chol]", "values": [{"measurement": "plasma concentration at 24 h as multiple of the measured IC50", "setting": "[3]; […], 24 h, versus IC50 7 pM", "result": "> 500", "unit": "fold"}, {"measurement": "AUC(0-t)", "setting": "[3]; plasma, 3.5 mg/kg", "result": 11.5, "unit": "µM·h"}, {"measurement": "Cmax", "setting": "[3]; plasma, 3.5 mg/kg", "result": 3100, "unit": "nM"}, {"measurement": "Tmax", "setting": "[3]; plasma, 3.5 mg/kg", "result": 4, "unit": "h"}, {"measurement": "CL/F", "setting": "[3]; plasma, 3.5 mg/kg, read-out: CI/F", "result": 0.6, "unit": "mL/min/kg"}, {"measurement": "level at time molar at 24 h", "setting": "[3]; plasma, intraperitoneal, 3.5 mg/kg, 24 h, read-out: plasma concentration still detectable after 24 h", "result": "~60", "unit": "nM"}, {"measurement": "IC50 fold change", "setting": "[4]", "result": 7, "unit": "fold"}, {"measurement": "breadth of antiviral response", "setting": "[5]", "result": "comparable IC50 in all strains"}, {"measurement": "potency relative to underivatized or cys-alkylated C34 across the whole panel", "setting": "[5]", "result": "~50", "unit": "fold"}, {"measurement": "increase of antiviral potency over C34 and C34-Aceta", "setting": "[1]", "result": 50, "unit": "fold"}, {"measurement": "potency relative to enfuvirtide/FUZEON", "setting": "[1]", "result": "~100", "unit": "fold"}]}
